Patent US12435060B2, “Acylamino bridged heterocyclic compound, and composition and application thereof” (BEIJING SCITECH-MQ PHARMACEUTICALS LIMITED, priority 2019, dated 2025)
pIC50: −log10 of the molar value.

What follows are compounds tested on HT29 cells (assay: Inhibition of cell necrosis (CCK8 method), induced programmed necrosis of HT29 cells). Settings: Homo sapiens, HT-29; rescue from necrosis induced by TNF-α 20 ng/mL, AT-406 1 μM, Z-VAD-FMK 20 μM; 16-20 hours; CCK-8, OD 450 nm.
Format: cell-based
Outline: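 Rescue from programmed necrosis was scored by CCK-8 absorbance at 450 nm after 16-20 h of TNF-α (20 ng/mL), AT-406 (1 μM) and Z-VAD-FMK (20 μM) at 37 °C, 5% CO2. HT29 cells had received compound 30 min earlier across nine 4-fold dilutions (top 25000 nM final). IC50 came from % inhibition relative to uninduced and induced-only wells.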

Row | Compound | pIC50
1 | CCC(O)(CC)CCCOc1ccc(C(F)(F)F)c(-c2ccnc(NC(=O)c3nnc(CC4CCCC4)[nH]3)c2)c1 [Example 262, 5-(cyclopentylmethyl)-N-(4-(5-((4-ethyl-4-hydroxyhexyl)oxy)-2-(trifluoromethyl)phenyl)pyridin-2-yl)-4H-1,2,4-triazole-3-carboxamide] | ≥ 7.00
2 | CCC(O)(CC)CCCOc1ccc(C(F)(F)F)c(-c2ccnc(NC(=O)c3nnc(CC4CCCCC4)[nH]3)c2)c1 [Example 263, 5-(cyclohexylmethyl)-N-(4-(5-((4-ethyl-4-hydroxyhexyl)oxy)-2-(trifluoromethyl)phenyl)pyridin-2-yl)-4H-1,2,4-triazole-3-carboxamide] | ≥ 7.00
3 | CC(C)(O)COc1ccc(C(F)(F)F)c(-c2ccnc(NC(=O)c3nnc(Cc4ccccc4)[nH]3)c2)c1 [Example 264, 5-benzyl-N-(4-(5-(2-hydroxyl-2-methylpropoxy)-2-(trifluoromethyl)phenyl)pyridin-2-yl)-4H-1,2,4-triazole-3-carboxamide] | ≥ 7.00
4 | CC(C)(O)COc1ccc(C(F)(F)F)c(-c2ccnc(NC(=O)c3nnc(Cc4ccccc4F)[nH]3)c2)c1 [Example 265, 5-(2-fluorobenzyl)-N-(4-(5-(2-hydroxyl-2-methylpropoxy)-2-(trifluoromethyl)phenyl)pyridin-2-yl)-4H-1,2,4-triazole-3-carboxamide] | 6.00 to 7.00
5 | CC(C)(O)COc1ccc(C(F)(F)F)c(-c2ccnc(NC(=O)c3nnc(CC4CCCC4)[nH]3)c2)c1 [Example 266, 5-(cyclopentylmethyl)-N-(4-(5-(2-hydroxyl-2-methylpropoxy)-2-(trifluoromethyl)phenyl)pyridin-2-yl)-4H-1,2,4-triazole-3-carboxamide] | ≥ 7.00
6 | CC(C)(O)COc1ccc(C(F)(F)F)c(-c2ccnc(NC(=O)c3nnc(CC4CCCCC4)[nH]3)c2)c1 [Example 267, 5-(cyclohexylmethyl)-N-(4-(5-(2-hydroxyl-2-methylpropoxy)-2-(trifluoromethyl)phenyl)pyridin-2-yl)-4H-1,2,4-triazole-3-carboxamide] | ≥ 7.00
7 | CC(C)(O)CCCCOc1ccc(C(F)(F)F)c(-c2ccnc(NC(=O)c3nnc(Cc4ccccc4)[nH]3)c2)c1 [Example 268, 5-benzyl-N-(4-(5-((5-hydroxyl-5-methylhexyl)oxy)-2-(trifluoromethyl)phenyl)pyridin-2-yl)-4H-1,2,4-triazole-3-carboxamide] | ≥ 7.00
8 | CC(C)(O)CCCCOc1ccc(C(F)(F)F)c(-c2ccnc(NC(=O)c3nnc(Cc4ccccc4F)[nH]3)c2)c1 [Example 269, 5-(2-fluorobenzyl)-N-(4-(5-((5-hydroxyl-5-methylhexyl)oxy)-2-(trifluoromethyl)phenyl)pyridin-2-yl)-4H-1,2,4-triazole-3-carboxamide] | ≥ 7.00
9 | CC(C)(O)CCCCOc1ccc(C(F)(F)F)c(-c2ccnc(NC(=O)c3nnc(CC4CCCC4)[nH]3)c2)c1 [Example 270, 5-(cyclopentylmethyl)-N-(4-(5-((5-hydroxyl-5-methylhexyl)oxy)-2-(trifluoromethyl)phenyl)pyridin-2-yl)-4H-1,2,4-triazole-3-carboxamide] | ≥ 7.00
10 | CC(C)(O)CCCCOc1ccc(C(F)(F)F)c(-c2ccnc(NC(=O)c3nnc(CC4CCCCC4)[nH]3)c2)c1 [Example 271, 5-(cyclohexylmethyl)-N-(4-(5-((5-hydroxyl-5-methylhexyl)oxy)-2-(trifluoromethyl)phenyl)pyridin-2-yl)-4H-1,2,4-triazole-3-carboxamide] | ≥ 7.00
11 | O=C(Nc1cc(-c2cc(OCCCCO)ccc2C(F)(F)F)ccn1)c1nnc(Cc2ccccc2)[nH]1 [Example 272, 5-benzyl-N-(4-(5-(4-hydroxybutoxy)-2-(trifluoromethyl)phenyl)pyridin-2-yl)-4H-1,2,4-triazole-3-carboxamide] | ≥ 7.00
12 | O=C(Nc1cc(-c2cc(OCCCCO)ccc2C(F)(F)F)ccn1)c1nnc(Cc2ccccc2F)[nH]1 [Example 273, 5-(2-fluorobenzyl)-N-(4-(5-(4-hydroxybutoxy)-2-(trifluoromethyl)phenyl)pyridin-2-yl)-4H-1,2,4-triazole-3-carboxamide] | ≥ 7.00
13 | O=C(Nc1cc(-c2cc(OCCCCO)ccc2C(F)(F)F)ccn1)c1nnc(CC2CCCC2)[nH]1 [Example 274, 5-(cyclopentylmethyl)-N-(4-(5-(4-hydroxybutoxy)-2-(trifluoromethyl)phenyl)pyridin-2-yl)-4H-1,2,4-triazole-3-carboxamide] | ≥ 7.00
14 | O=C(Nc1cc(-c2cc(OCCCCCO)ccc2C(F)(F)F)ccn1)c1nnc(Cc2ccccc2)[nH]1 [Example 275, 5-benzyl-N-(4-(5-((5-hydroxypentyl)oxy)-2-(trifluoromethyl)phenyl)pyridin-2-yl)-4H-1,2,4-triazole-3-carboxamide] | ≥ 7.00
15 | O=C(Nc1cc(-c2cc(OCCCCCO)ccc2C(F)(F)F)ccn1)c1nnc(Cc2ccccc2F)[nH]1 [Example 276, 5-(2-fluorobenzyl)-N-(4-(5-((5-hydroxypentyl)oxy)-2-(trifluoromethyl)phenyl)pyridin-2-yl)-4H-1,2,4-triazole-3-carboxamide] | ≥ 7.00
16 | O=C(Nc1cc(-c2cc(OCCCCCO)ccc2C(F)(F)F)ccn1)c1nnc(CC2CCCC2)[nH]1 [Example 277, 5-(cyclopentylmethyl)-N-(4-(5-((5-hydroxypentyl)oxy)-2-(trifluoromethyl)phenyl)pyridin-2-yl)-4H-1,2,4-triazole-3-carboxamide] | ≥ 7.00
17 | O=C(Nc1cc(-c2cc(OCCCCCO)ccc2C(F)(F)F)ccn1)c1nnc(CC2CCCCC2)[nH]1 [Example 278, 5-(cyclohexylmethyl)-N-(4-(5-((5-hydroxypentyl)oxy)-2-(trifluoromethyl)phenyl)pyridin-2-yl)-4H-1,2,4-triazole-3-carboxamide] | ≥ 7.00
18 | COCCOc1ccc(C(F)(F)F)c(-c2ccnc(NC(=O)c3nnc(Cc4ccccc4)[nH]3)c2)c1 [Example 279, 5-benzyl-N-(4-(5-(2-methoxyethoxy)-2-(trifluoromethyl)phenyl)pyridin-2-yl)-4H-1,2,4-triazole-3-carboxamide] | ≥ 7.00
19 | COCCOc1ccc(C(F)(F)F)c(-c2ccnc(NC(=O)c3nnc(Cc4ccccc4F)[nH]3)c2)c1 [Example 280, 5-(2-fluorobenzyl)-N-(4-(5-(2-methoxyethoxy)-2-(trifluoromethyl)phenyl)pyridin-2-yl)-4H-1,2,4-triazole-3-carboxamide] | ≥ 7.00
20 | COCCOc1ccc(C(F)(F)F)c(-c2ccnc(NC(=O)c3nnc(CC4CCCC4)[nH]3)c2)c1 [Example 281, 5-(cyclopentylmethyl)-N-(4-(5-(2-methoxyethoxy)-2-(trifluoromethyl)phenyl)pyridin-2-yl)-4H-1,2,4-triazole-3-carboxamide] | ≥ 7.00
21 | COCCOc1ccc(C(F)(F)F)c(-c2ccnc(NC(=O)c3nnc(CC4CCCCC4)[nH]3)c2)c1 [Example 282, 5-(cyclohexylmethyl)-N-(4-(5-(2-methoxyethoxy)-2-(trifluoromethyl)phenyl)pyridin-2-yl)-4H-1,2,4-triazole-3-carboxamide] | ≥ 7.00
22 | CCOCCOc1ccc(C(F)(F)F)c(-c2ccnc(NC(=O)c3nnc(Cc4ccccc4)[nH]3)c2)c1 [Example 283, 5-benzyl-N-(4-(5-(2-ethoxyethoxy)-2-(trifluoromethyl)phenyl)pyridin-2-yl)-4H-1,2,4-triazole-3-carboxamide] | ≥ 7.00
23 | CCOCCOc1ccc(C(F)(F)F)c(-c2ccnc(NC(=O)c3nnc(Cc4ccccc4F)[nH]3)c2)c1 [Example 284, 5-(2-fluorobenzyl)-N-(4-(5-(2-ethoxyethoxy)-2-(trifluoromethyl)phenyl)pyridin-2-yl)-4H-1,2,4-triazole-3-carboxamide] | ≥ 7.00
24 | CCOCCOc1ccc(C(F)(F)F)c(-c2ccnc(NC(=O)c3nnc(CC4CCCC4)[nH]3)c2)c1 [Example 285, 5-(cyclopentylmethyl)-N-(4-(5-(2-ethoxyethoxy)-2-(trifluoromethyl)phenyl)pyridin-2-yl)-4H-1,2,4-triazole-3-carboxamide] | ≥ 7.00
25 | CCOCCOc1ccc(C(F)(F)F)c(-c2ccnc(NC(=O)c3nnc(CC4CCCCC4)[nH]3)c2)c1 [Example 286, 5-(cyclohexylmethyl)-N-(4-(5-(2-ethoxyethoxy)-2-(trifluoromethyl)phenyl)pyridin-2-yl)-4H-1,2,4-triazole-3-carboxamide] | ≥ 7.00
26 | CC(C)OCCOc1ccc(C(F)(F)F)c(-c2ccnc(NC(=O)c3nnc(Cc4ccccc4)[nH]3)c2)c1 [Example 287, 5-benzyl-N-(4-(5-(2-isopropoxyethoxy)-2-(trifluoromethyl)phenyl)pyridin-2-yl)-4H-1,2,4-triazole-3-carboxamide] | ≥ 7.00
27 | CC(C)OCCOc1ccc(C(F)(F)F)c(-c2ccnc(NC(=O)c3nnc(Cc4ccccc4F)[nH]3)c2)c1 [Example 288, 5-(2-fluorobenzyl)-N-(4-(5-(2-isopropoxyethoxy)-2-(trifluoromethyl)phenyl)pyridin-2-yl)-4H-1,2,4-triazole-3-carboxamide] | ≥ 7.00
28 | CC(C)OCCOc1ccc(C(F)(F)F)c(-c2ccnc(NC(=O)c3nnc(CC4CCCC4)[nH]3)c2)c1 [Example 289, 5-(cyclopentylmethyl)-N-(4-(5-(2-isopropoxyethoxy)-2-(trifluoromethyl)phenyl)pyridin-2-yl)-4H-1,2,4-triazole-3-carboxamide] | ≥ 7.00
29 | CC(C)OCCOc1ccc(C(F)(F)F)c(-c2ccnc(NC(=O)c3nnc(CC4CCCCC4)[nH]3)c2)c1 [Example 290, 5-(cyclohexylmethyl)-N-(4-(5-(2-isopropoxyethoxy)-2-(trifluoromethyl)phenyl)pyridin-2-yl)-4H-1,2,4-triazole-3-carboxamide] | ≥ 7.00
30 | CC(C)(C)OCCOc1ccc(C(F)(F)F)c(-c2ccnc(NC(=O)c3nnc(Cc4ccccc4)[nH]3)c2)c1 [Example 291, 5-benzyl-N-(4-(5-(2-(tert-butoxy)ethoxy)-2-(trifluoromethyl)phenyl)pyridin-2-yl)-4H-1,2,4-triazole-3-carboxamide] | ≥ 7.00
